The compounds below were run against T1, Inhibitor of nuclear factor kappa-B kinase subunit beta (Homo sapiens, UniProt O14920). Conditions: read-out: IC50.
T1 sequence (O14920 whole entry): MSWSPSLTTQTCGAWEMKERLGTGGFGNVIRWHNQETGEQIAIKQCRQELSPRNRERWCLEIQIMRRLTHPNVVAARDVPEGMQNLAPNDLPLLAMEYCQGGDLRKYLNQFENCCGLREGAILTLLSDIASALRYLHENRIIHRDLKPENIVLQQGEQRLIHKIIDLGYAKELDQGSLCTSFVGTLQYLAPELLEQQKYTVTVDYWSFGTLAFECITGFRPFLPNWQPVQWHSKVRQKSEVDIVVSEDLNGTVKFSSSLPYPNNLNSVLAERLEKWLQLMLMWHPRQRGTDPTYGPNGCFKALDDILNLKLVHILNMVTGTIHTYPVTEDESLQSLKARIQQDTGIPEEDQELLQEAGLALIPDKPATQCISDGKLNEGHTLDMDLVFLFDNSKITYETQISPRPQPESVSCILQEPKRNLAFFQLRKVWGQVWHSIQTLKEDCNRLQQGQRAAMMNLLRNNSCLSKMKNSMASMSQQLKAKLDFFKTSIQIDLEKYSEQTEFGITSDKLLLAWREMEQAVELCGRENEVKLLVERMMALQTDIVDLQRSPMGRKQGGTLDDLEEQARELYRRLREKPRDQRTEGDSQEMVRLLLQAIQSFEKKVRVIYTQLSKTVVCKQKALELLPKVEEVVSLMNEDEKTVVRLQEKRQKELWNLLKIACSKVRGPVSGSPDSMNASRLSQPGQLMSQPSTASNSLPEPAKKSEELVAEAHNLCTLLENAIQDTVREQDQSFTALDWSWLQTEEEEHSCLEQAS

| IC50 [nM] | SMILES |
| --- | --- |
| 9690 | Cc1sc(N)c2c(=O)oc3c4ccccc4ccc3c12 |
| 2440 | Cc1c(-c2ccc3c(c2)COC3)sc(N)c1C#N |

Same assay, conditions: read-out: pIC50 (converted)

| SMILES | IC50 [nM] |
| --- | --- |
| CNc1nc2sc(-c3ccc(SC)cc3)nc2c2c1ncn2C | 28.2 |
| NC(=O)Nc1cc(-c2ccccc2)sc1C(N)=O | 25.1 |
| NC(=O)Nc1sc(C#Cc2cccc(NC(=O)c3ccccn3)c2)cc1C(N)=O | 100000 |
| CN(C)c1ccc(-c2cc(-c3ccccc3O)nc(N)c2C#N)cc1 | 20000 |
| CNc1nc2sc(-c3ccc(N4CC=CCC4)cc3)nc2c2c1ncn2C | 33.1 |
| NC(=O)c1sc(-c2ccccc2)cc1NC(=O)NCc1ccccc1 | 100000 |
| O=C1C=CC(c2ccc(-c3ccnc(Nc4ccc5ncsc5c4)n3)cc2)C=C1 | 2510 |
| CNc1nc2[nH]c(-c3cccc(CNC(=O)CCOC)c3)cc2c2c1ncn2C | 12 |
| c1ccc(Oc2ccc(-c3ccnc(Nc4ccc5ncsc5c4)n3)cc2)cc1 | 6030 |
| CNC(=O)c1cc(-c2ccc(F)cc2)cc(-c2ccc(N3CCCCC3)cc2)c1N | 15800 |
| Cc1cnc2c(NCCN)nc3cc(-c4ccc[nH]4)sc3n12 | 2.51 |
| N#Cc1c(-c2ccc([N+](=O)[O-])cc2)cc(-c2ccccc2O)nc1N | 20000 |
| CNC(=O)c1sc(-c2ccccc2)cc1NC(N)=O | 100000 |
| CNc1nc2[nH]c(-c3cccc(CNC(=O)CCC(N)=O)c3)cc2c2c1ncn2C | 21.9 |
| CCNC(=O)c1ccc(-c2nc3c(nc(NC)c4ncn(C)c43)s2)cc1 | 15.1 |
| CNc1nc2cc(-c3nccs3)sc2c2c1ncn2C | 229 |
| CNc1nc2sc(-c3ccc(F)cc3)nc2c2c1ncn2C | 26.3 |
| O=S(=O)(c1ccc(-c2ccnc(Nc3cc(F)cc(F)c3)n2)cc1)N1CCNCC1 | 117 |
| NC(=O)Nc1ncc(-c2ccccc2)nc1C(N)=O | 10000 |
| CNC(=O)c1cc(-c2ccc(F)cc2)cc(-c2ccc(S(C)(=O)=O)cc2)c1N | 15800 |
| NC(=O)Nc1cc(-c2cccc(Cl)c2)sc1C(N)=O | 39.8 |
| N#Cc1c(C2CCCNC2)cc(-c2c(O)cccc2OCc2ccccc2)nc1N (configuration not stated) | 9.12 |
| CCS(=O)(=O)N1CCC(COc2cc3cnccc3cc2-c2ccccc2)CC1 | 20000 |
| CNc1nc2cc(-c3ccccc3)sc2n2c(C)cnc12 | 21.9 |
| C#Cc1c(C2CCNCC2)cc(-c2c(O)cccc2OCC2CC2)nc1N | 8.51 |
| CNc1nc2[nH]c(-c3cccc(OC)c3)cc2c2c1ncn2C | 7.94 |
| CNc1nc2[nH]c(-c3ccc(F)cc3)cc2c2c1ncn2C | 42.7 |

Other lines, results leading:

| IC50 [nM] | SMILES |
| --- | --- |
| 15800 | COc1c(C(N)=O)cc(-c2ccccc2)cc1-c1ccncc1 |
| > 100000 | CN(CCN)C(=O)c1ccc(Nc2nccc(-c3cc4ccccc4s3)n2)cc1 |
| 316 | CN(c1ccc(-c2ccnc3[nH]ccc23)cc1)S(C)(=O)=O |
| 39.8 | Cc1cnc2c(NCCN3CCNCC3)nc3cc(-c4ccccc4)sc3n12 |
| 25.7 | CC(=O)c1cc2cc(Nc3nccc(-c4ccc(S(=O)(=O)N5CCNCC5)cc4)n3)ccc2o1 |
| 15.1 | CNC(=O)c1ccc(-c2nc3c(nc(NC)c4ncn(C)c43)s2)cc1 |
| 263 | NC(=O)Nc1sc(C#CC2CC2)cc1C(N)=O |
| 1580 | NC(=O)c1sc(-c2ccccc2)cc1NS(=O)(=O)c1ccc(F)cc1 |
| 9.12 | CNc1nc2cc(-c3cccc(CCC(=O)O)c3)sc2n2c(C)cnc12 |
| 447 | Cc1cnc2c(NCCN)nc3cc(-c4ncc[nH]4)sc3n12 |
| 26.3 | N#Cc1c(C2CCCNC2)cc(-c2c(O)cccc2OCC2CCCCC2)nc1N (configuration not stated) |
| 7.08 | CNc1nc2[nH]c(-c3cccc(C#N)c3)cc2c2c1ncn2C |
| 15.1 | CNc1nc2sc(-c3ccc(C(=O)NCc4cccs4)cc3)nc2c2c1ncn2C |
| 3240 | NC(=O)c1sc(-c2ccccc2)cc1N |
| 32.4 | CNCCNS(=O)(=O)c1ccc(-c2ccnc3[nH]ccc23)cc1 |

What follows are compounds tested against T2, Inhibitor of nuclear factor kappa-B kinase subunit beta (Homo sapiens) (UniProt O14920) (assay: Inhibition of human IKKbeta using GST-IkappaBalpha as substrate at 10 uM). Conditions: not given.
T2 sequence (whole entry): T1 sequence (O14920 whole entry)

| SMILES | inhibition [%] |
| --- | --- |
| CCOC(=O)c1c(N)oc(=O)c2c1-c1ccccc1C2=O | 43.8 |
| NC(=O)C[C@H](Nc1ncc2c(n1)-c1ccccc1OC2)C(=O)O | 44.4 |
| Cc1ccc(-c2cc3c(c(N)c2C#N)c(=O)oc2ccccc23)o1 | 23.4 |
| Nc1nc(=O)c2ncn(-c3cccc(-c4ccccc4)c3)c2[nH]1 | 47.1 |
| Cc1sc(N)c2c(=O)oc3c4ccccc4ccc3c12 | 64.1 |
| N#Cc1c(C2CCNCC2)cc(-c2c(O)cccc2OCC2CC2)nc1N | 100 |
| CC(C)NC[C@@H](O)COc1cccc2[nH]c3ccccc3c12 | 36.7 |
| OC[C@@H](O)[C@@H](O)[C@H](O)c1nn(-c2ccccc2)c2nc3ccc(Cl)cc3nc12 | 44.8 |
| CC[C@H](OC(=O)Nc1ccc(S(=O)(=O)N2CCCCC2)cc1)c1ccco1 | 44.3 |
| COC(=O)c1ccc(NC(=O)COc2ccc(S(=O)(=O)NC(C)(C)C)cc2)cc1 | 23.8 |
| Cc1c(-c2ccc3c(c2)COC3)sc(N)c1C#N | 92.4 |

Now from value to compound:

| inhibition [%] | SMILES |
| --- | --- |
| 41.5 | CCCCc1ccc(-n2cnc3c(=O)[nH]c(N)nc32)cc1 |
| 29.6 | O=C(c1ccco1)c1coc2c1cc(O)c1ccccc12 |

— ChEMBL document CHEMBL2375326, “Novel IKKβ inhibitors discovery based on the co-crystal structure by using binding-conformation-based and ligand-based method” (Eur J Med Chem, 2013)
